These results are taken from article PMC8311653, “Design, Synthesis, In Vitro and In Vivo Characterization of Selective NKCC1 Inhibitors for the Treatment of Core Symptoms in Down Syndrome” (Journal of Medicinal Chemistry, 2021).

Where only a bound is given, the exact number is not on record here.

The nature of data set [1]: In vitro mouse plasma stability. The format is in vitro ADME. To be noted: mouse plasma at 37 °C; incubated at 5 μM (final DMSO 0.1%); read-out: t1/2 plasma.
A short description of data set [2]: Aqueous kinetic solubility in PBS pH 7.4. It is filed as physicochemical. The following applies: aqueous kinetic solubility from 10 mM DMSO solution in PBS pH 7.4, target concentration 250 μM (final DMSO 2.5%). The protocol: 1. Aqueous kinetic solubility.
30 µL aliquots of 10 mM DMSO stock solution of the test compound were incubated in Phosphate
Buffered Saline (PBS) at pH 7.4 at 25°C for 24h. After centrifugation the dissolved compound in the
supernatant was quantified by LC-MS/MS.
Aqueous kinetic solubility was determined by UV quantification at
215 nm. […]

The target of a further data set is T1, NKCC1 (Mus musculus, UniProt P55012).
T1 construct: primary neuronal cultures of dissociated hippocampal neurons were prepared from E18 C57BL/6J mice; endogenous in cells; host or cells: primary hippocampal neurons from E18 C57BL/6J mice, 3 DIV
T1 sequence (P55012 1-1205): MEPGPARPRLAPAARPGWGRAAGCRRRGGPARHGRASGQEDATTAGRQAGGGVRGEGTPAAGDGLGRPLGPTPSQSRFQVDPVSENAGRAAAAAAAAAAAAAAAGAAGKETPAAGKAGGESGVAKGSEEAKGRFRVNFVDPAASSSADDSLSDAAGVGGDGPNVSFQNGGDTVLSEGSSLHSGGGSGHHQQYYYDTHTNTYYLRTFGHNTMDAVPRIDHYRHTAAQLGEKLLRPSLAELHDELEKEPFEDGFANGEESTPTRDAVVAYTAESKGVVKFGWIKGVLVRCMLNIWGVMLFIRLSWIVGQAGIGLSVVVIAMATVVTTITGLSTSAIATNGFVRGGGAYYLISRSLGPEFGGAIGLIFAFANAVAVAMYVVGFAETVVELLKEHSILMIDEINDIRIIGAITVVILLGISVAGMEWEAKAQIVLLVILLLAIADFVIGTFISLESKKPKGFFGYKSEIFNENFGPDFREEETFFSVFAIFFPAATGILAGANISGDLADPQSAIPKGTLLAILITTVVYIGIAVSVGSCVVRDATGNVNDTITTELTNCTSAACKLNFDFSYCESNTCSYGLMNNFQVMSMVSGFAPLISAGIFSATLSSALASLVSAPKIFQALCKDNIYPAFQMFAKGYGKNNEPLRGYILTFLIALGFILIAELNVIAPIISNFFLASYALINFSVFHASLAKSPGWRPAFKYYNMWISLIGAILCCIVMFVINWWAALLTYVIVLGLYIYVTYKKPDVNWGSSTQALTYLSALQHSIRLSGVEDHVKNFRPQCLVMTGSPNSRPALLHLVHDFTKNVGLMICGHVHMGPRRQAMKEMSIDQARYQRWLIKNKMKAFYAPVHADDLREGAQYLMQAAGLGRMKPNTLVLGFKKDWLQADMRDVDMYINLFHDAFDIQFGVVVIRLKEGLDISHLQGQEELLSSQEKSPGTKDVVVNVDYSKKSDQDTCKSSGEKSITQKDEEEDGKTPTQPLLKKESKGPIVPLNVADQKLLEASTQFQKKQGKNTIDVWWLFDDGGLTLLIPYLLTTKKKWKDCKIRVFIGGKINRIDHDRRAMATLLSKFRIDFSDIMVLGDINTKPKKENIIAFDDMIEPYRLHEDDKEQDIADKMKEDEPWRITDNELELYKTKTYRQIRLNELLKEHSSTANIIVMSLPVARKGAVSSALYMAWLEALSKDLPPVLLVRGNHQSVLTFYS
Kind of data set: Ca2+ influx assay in immature primary neuronal cultures (indirect measure of NKCC1 inhibition). It is filed as cell-based. The protocol: To perform the Ca^2+-influx assay, primary neuronal cultures of dissociated hippocampal neurons were prepared from E18 C57BL/6J mice (Charles River) as previously described[56] and plated in 96-well black-walled, clear-bottomed plates coated with poly-L-lysine (Sigma; 0.1 mg/mL in 100 mM borate buffer, pH 8.5) at a density of 30,000 cells per well. Neurons were maintained in neurobasal medium supplemented with 2% B-27 supplement, 0.5 mM glutamine, 50 U/mL of penicillin, and 50 μg/mL of streptomycin (all from Gibco). The cells were incubated at 37 °C and 5% CO2 until DIV 3 for the Ca^2+ influx assay.
At 3 DIVs, neurons were loaded with 2.5 μM of the Ca^2+-sensitive day Fluo4-AM (Invitrogen) in extracellular solution (145 mM NaCl, 5 mM KCl, 10 mM HEPES, 5.55 mM glucose, 1 mM MgCl2, and 2 mM CaCl2, pH 7.4). After 15 min, cells were washed twice with extracellular solutions and treated with bumetanide (as a positive control), DMSO (as a negative control), or each of our compounds at 10 μM or 100 μM, in extracellular solution for 15 min. Plates were then loaded onto a Spark (Tecan) multiplate reader equipped with an automatic liquid injector system, and Fluo4 fluorescence was recorded with excitation at 485 nm and emission at 535 nm. For each well, fluorescence was first recorded for 20 s of the baseline and for 20 s after delivery of GABA (100 μM). To evaluate neuronal viability, fluorescence was recorded for an additional 20 s after delivery of a depolarizing KCl stimulus (90 mM final concentration in wells). To represent the fluorescent traces in time, we normalized the fluorescence value for each time point to the average of the fluorescence value for the first 20 s of the baseline (ΔF/F0). To quantify the average effects as represented by the bar plots, we measured the maximum peak increase in ΔF/F0 fluorescence upon GABA application normalized over the maximum peak increase in ΔF/F0 fluorescence upon KCl application. We then presented in the figures all the data as a percentage of the fluorescence increase versus the value of the control DMSO.

Data set [3] in a line: In vitro metabolic stability in mouse liver microsomes. The following applies: tissue homogenate, pH 7.4. The procedure, abridged:
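Compound incubated in mouse liver microsomes in 0.1M Tris-HCl pH 7.4 with 10% DMSO; after pre-incubation NADPH, G6P, G6PDH and MgCl2 added, then 37 °C for 1h, sampled at 0, 5, 15, 30, 60 min.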
(In general: Microsomes from liver hold many membrane-bound enzymes, among them those of drug oxidation.)

Setting [4] is: phosphate buffered saline (PBS).
Where [5] appears, read: 100 μM, cultured neurons, 3 DIV.

For `CN(C)S(=O)(=O)c1cc(C(=O)O)ccc1NCCCCCCCC(F)(F)F` [Compound 1, 3-(-N,N-Dimethylsulfamoyl)-4-(8,8,8-trifluorooctylamino)benzoic Acid], the half-life at 5 μM in data set [1] was > 2 h; in data set [3], > 1 h. Moreover, in data set [2] (setting [4]), the solubility (as a rule, how much of the substance goes into solution per volume) at 24 h is > 250 µM. The inhibition (in general, the percentage by which the read-out fell short of the control) at 10 µM against NKCC1 (cultured neurons, 3 DIV) is 45.7 ± 4.3%. Further, testing at 100 µM at NKCC1 (setting [5]) gave an inhibition of 92.8 ± 1.9%.

Consider `CN(C)S(=O)(=O)c1cc(C(=O)O)c(O)cc1NCCCCCCCC(F)(F)F` [Compound 40, 5-(N,N-Dimethylsulfamoyl)-2-hydroxy-4-((8,8,8-trifluorooctyl)amino)benzoic Acid], for which, in data set [1], the half-life at 5 μM was > 2 h. In addition, the solubility at 24 h in data set [2] (setting [4]) was > 250 µM. 10 µM produced 13.9 ± 2% inhibition on NKCC1 (cultured neurons, 3 DIV). Moreover, on NKCC1 (setting [5]), the “Inhibition 100 μM Ca2+ influx (%)” value is reported as 51.9 ± 4.0% and the inhibition at 100 µM worked out at 51.8 ± 4%. In addition, the “inhibition of NKCC1 in the Ca2+ influx assay (dose dependence)” value against NKCC1 (neuronal cultures, Figures 4A and S2) is “significant dose-dependent inhibition”. In data set [3], the half-life at 5 μM is > 1 h.

In the case of `CCCCNc1cc(C(=O)O)cc(S(N)(=O)=O)c1Oc1ccccc1` [bumetanide, reference compound], in data set [2], the solubility at 24 h was > 250 µM. At NKCC1 (cultured neurons, 3 DIV), this compound came in with an inhibition at 10 µM of 51.9 ± 2.3%. This compound also yielded an inhibition at 100 µM on NKCC1 (setting [5]) of 54.7 ± 2.5%. Besides, the half-life at 5 μM in data set [3] is > 1 h.
